The values that follow are results of earlier work, collected in US20060159736A1, “Liposome formulations of boronic acid compounds” (priority 2004, published 2006).

Read-outs that look alike come from different tables or passages of the source.

The test system of one data set is tumor lines. The note with it: range of tumor lines.
In data set [1] the test system is human prostate cancer xenograft. The conditions noted are these: human prostate xenograft models.
A further data set concerns lung cancer xenograft. The note with it: lung cancer xenograft models.
For data set [2] the following is noted: given intravenously once or twice weekly; patients with solid tumors.
The conditions of data set [3]: intravenous bolus on days 1, 4, 8, and 11 of a 3-week cycle.
The test system of data set [4] is cancer tissues (breast, ovarian, prostate, lung) and tumors (pancreatic tumors, lymphomas, melanoma).

For `CC(C)C[C@H](NC(=O)[C@H](Cc1ccccc1)NC(=O)c1cnccn1)B(O)O` [bortezomib], in the data set with tumor lines, the cytotoxicity result is reported as “showed cytotoxicity against a range of tumor lines”. Moreover, the antitumor activity entry (in data set [1]; in the data set with lung cancer xenograft) was “had antitumor activity” throughout. For the same molecule, the values for the maximum tolerated dose in data set [2] and in data set [3] were 1.3 mg/m^2 and 1.56 mg/m^2, respectively. For the same molecule, in data set [4], the “activity against cancer tissues and tumors” value is given as “activity against a variety of cancer tissues”.
